ChEMBL document CHEMBL4699525, “Design and synthesis of new indanol-1,2,3-triazole derivatives as potent antitubercular and antimicrobial agents” (Bioorg Med Chem Lett, 2020)
Values after ≈ are worked out from the molar mass of the structure shown.

Legend:
Aspergillus niger [1] = assay: Antifungal activity against Aspergillus niger assessed as inhibition of fungal growth incubated for 24 hrs by agar well diffusion method; assay type: functional
[2] = Cytotoxicity against human HEK293 cells assessed as inhibition of cell growth at 25 uM incubated for 48 hrs by MTT assay; assay type: cell-based
Aspergillus niger [3] = assay: Antifungal activity against Aspergillus niger assessed as inhibition of […] growth incubated for overnight by CLSI based method; assay type: functional
[4] = test system: Salmonella enterica subsp. enterica serovar Abony; assay: Antibacterial activity against Salmonella abony assessed as inhibition of bacterial growth incubated for 24 hrs by agar well diffusion method; assay type: functional
Pseudomonas aeruginosa = assay: Antibacterial activity against Pseudomonas aeruginosa assessed as inhibition of bacterial growth incubated for 24 hrs by agar well diffusion method; assay type: functional
Shigella boydii [5] = assay: Antibacterial activity against Shigella boydii assessed as inhibition of bacterial growth incubated for 24 hrs by agar well diffusion method; assay type: functional
Staphylococcus aureus [6] = assay: Antibacterial activity against Staphylococcus aureus assessed as inhibition of bacterial growth incubated for 24 hrs by agar well diffusion method; assay type: functional
Staphylococcus aureus [7] = assay: Antibacterial activity against Staphylococcus aureus assessed as inhibition of bacterial growth incubated for overnight by CLSI based method; assay type: functional
Klebsiella aerogenes [8] = assay: Antibacterial activity against Enterobacter aerogenes assessed as inhibition of bacterial growth incubated for 24 hrs by agar well diffusion method; assay type: functional
[9] = molecular target: T1, Enoyl-[acyl-carrier-protein] reductase [NADH] (Mycobacterium tuberculosis) (UniProt P9WGR1); assay: Inhibition of InhA in Mycobacterium tuberculosis H37Rv assessed antitubercular activity by measuring inhibition of bacterial growth incubated for 7 days by MABA assay; conditions: time 7.0 day
T1 sequence (whole entry): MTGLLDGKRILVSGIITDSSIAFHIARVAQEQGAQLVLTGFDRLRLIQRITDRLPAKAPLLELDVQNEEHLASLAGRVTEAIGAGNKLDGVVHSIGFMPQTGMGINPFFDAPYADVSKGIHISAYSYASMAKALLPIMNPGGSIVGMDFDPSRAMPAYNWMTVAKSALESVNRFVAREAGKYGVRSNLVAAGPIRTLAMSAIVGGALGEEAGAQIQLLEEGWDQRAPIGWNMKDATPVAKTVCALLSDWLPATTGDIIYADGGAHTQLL

Candida albicans [10] = assay: Antifungal activity against Candida albicans assessed as inhibition of fungal growth incubated for 24 hrs by agar well diffusion method; assay type: functional
Escherichia coli = assay: Antibacterial activity against Escherichia coli assessed as inhibition of bacterial growth incubated for 24 hrs by agar well diffusion method; assay type: functional
Salmonella typhi = assay: Antibacterial activity against Salmonella typhi assessed as inhibition of bacterial growth incubated for 24 hrs by agar well diffusion method; assay type: functional, Salmonella enterica subsp. enterica serovar Typhi
Bacillus subtilis = assay: Antibacterial activity against Bacillus subtilis assessed as inhibition of bacterial growth incubated for 24 hrs by agar well diffusion method; assay type: functional
Bacillus cereus = assay: Antibacterial activity against Bacillus cereus assessed as inhibition of bacterial growth incubated for 24 hrs by agar well diffusion method; assay type: functional
Klebsiella aerogenes [11] = assay: Antibacterial activity against Enterobacter aerogenes assessed as inhibition of bacterial growth incubated for overnight by CLSI based method; assay type: functional
Saccharomyces cerevisiae [12] = assay: Antifungal activity against Saccharomyces cerevisiae assessed as inhibition of […] growth incubated for overnight by CLSI based method; assay type: functional
Shigella boydii [13] = assay: Antibacterial activity against Shigella boydii assessed as inhibition of bacterial growth incubated for overnight by CLSI based method; assay type: functional
Candida albicans [14] = assay: Antifungal activity against Candida albicans assessed as inhibition of […] growth incubated for overnight by CLSI based method; assay type: functional
Saccharomyces cerevisiae [15] = assay: Antifungal activity against Saccharomyces cerevisiae assessed as inhibition of fungal growth incubated for 24 hrs by agar well diffusion method; assay type: functional

Compound | diameter of the inhibition zone (DIZ) (Aspergillus niger [1]) [mm] | inhibition at 48 h, 25 µM [2] [%] | MIC (Aspergillus niger [3]) [µg/mL] | diameter of the inhibition zone (DIZ) [4] [mm] | diameter of the inhibition zone (DIZ) (Pseudomonas aeruginosa) [mm] | diameter of the inhibition zone (DIZ) (Shigella boydii [5]) [mm] | diameter of the inhibition zone (DIZ) (Staphylococcus aureus [6]) [mm] | MIC (Staphylococcus aureus [7]) [µg/mL] | diameter of the inhibition zone (DIZ) (Klebsiella aerogenes [8]) [mm] | MIC [9] [µM] | diameter of the inhibition zone (DIZ) (Candida albicans [10]) [mm] | diameter of the inhibition zone (DIZ) (Escherichia coli) [mm] | diameter of the inhibition zone (DIZ) (Salmonella typhi) [mm] | diameter of the inhibition zone (DIZ) (Bacillus subtilis) [mm] | diameter of the inhibition zone (DIZ) (Bacillus cereus) [mm] | MIC (Klebsiella aerogenes [11]) [µg/mL] | MIC (Saccharomyces cerevisiae [12]) [µg/mL] | MIC (Shigella boydii [13]) [µg/mL] | MIC (Candida albicans [14]) [µg/mL] | diameter of the inhibition zone (DIZ) (Saccharomyces cerevisiae [15]) [mm]
COc1ccc(-n2cc(COc3ccc4c(c3)CCC4)nn2)cc1 | 6 | 21.1 | 180 (≈ 560 µM) | 12 | 12 | 11 | 8 | 160 (≈ 498 µM) | 9 | 25 (≈ 8.03 µg/mL) | 11 | 10 | 8 | 10 | 5 | 130 (≈ 405 µM) | 210 (≈ 653 µM) | 70 (≈ 218 µM) | 80 (≈ 249 µM) | 5
COc1ccccc1NC(=O)Cn1cc(COc2ccc3c(c2)CCC3)nn1 | 10 | 23.4 | 170 (≈ 449 µM) | 11 | 8 | 12 | 12 | 120 (≈ 317 µM) | 13 | 6.25 (≈ 2.37 µg/mL) | 12 | 10 | 12 | 10 | – | 95 (≈ 251 µM) | 210 (≈ 555 µM) | 150 (≈ 396 µM) | 180 (≈ 476 µM) | 10
Brc1ccccc1-n1cc(COc2ccc3c(c2)CCC3)nn1 | 7 | 16.5 | 170 (≈ 459 µM) | 13 | 13 | 12 | 16 | 90 (≈ 243 µM) | 12 | 6.25 (≈ 2.31 µg/mL) | 9 | 11 | 11 | 10 | 9 | 120 (≈ 324 µM) | 110 (≈ 297 µM) | 140 (≈ 378 µM) | 130 (≈ 351 µM) | 10
Cc1ccc(-n2cc(COc3ccc4c(c3)CCC4)nn2)c(C)c1 | 10 | 19.9 | 70 (≈ 219 µM) | 9 | 13 | 11 | 7 | 150 (≈ 470 µM) | 10 | 1.56 (≈ 0.498 µg/mL) | 11 | 12 | 12 | 10 | 10 | 75 (≈ 235 µM) | 50 (≈ 157 µM) | 55 (≈ 172 µM) | 60 (≈ 188 µM) | 12
Cc1ccc([N+](=O)[O-])cc1-n1cc(COc2ccc3c(c2)CCC3)nn1 | 6 | 26.5 | 155 (≈ 442 µM) | 9 | 9 | 11 | 13 | 50 (≈ 143 µM) | 11 | 12.5 (≈ 4.38 µg/mL) | 15 | 11 | 11 | 12 | 12 | 60 (≈ 171 µM) | 150 (≈ 428 µM) | 60 (≈ 171 µM) | 40 (≈ 114 µM) | 6
Brc1cccc(-n2cc(COc3ccc4c(c3)CCC4)nn2)c1 | 6 | – | 190 (≈ 513 µM) | 14 | 14 | 20 | 19 | 100 (≈ 270 µM) | 16 | > 25 | 14 | 15 | 8 | 17 | 10 | 150 (≈ 405 µM) | 160 (≈ 432 µM) | 130 (≈ 351 µM) | 100 (≈ 270 µM) | 7
O=C(Cn1cc(COc2ccc3c(c2)CCC3)nn1)Nc1cccc(Cl)c1 | 8 | – | 190 (≈ 496 µM) | 7 | 9 | 11 | 10 | 135 (≈ 353 µM) | 12 | > 25 | 10 | 13 | 13 | 12 | 10 | 110 (≈ 287 µM) | 230 (≈ 601 µM) | 140 (≈ 366 µM) | 165 (≈ 431 µM) | 5
